Measured values taken from patent publication US4956489A (Bioeurope, priority 1987, dated 1990).
Where two headings read alike, the source gives them in different places.

Experiments:
[1] = solubility in water; format: physicochemical; conditions: in water at 25° C. and pH 6
Source text: (§1) The amounts of residual solvent present in the final aqueous phase are removed by extraction with 2 liters of ethyl acetate. […] The aqueous phase is then concentrated by evaporation under vacuo, after which it is lyophilized. The structure of the product was verified by elemental analysis and proton NMR spectroscopy.
(b) The lactyl-L-tyrosine ethyl ester is purified and deesterified according to the procedure described in Example 1 in relation to L-malyl-L-tyrosine ethyl ester, to obtain L-lactyl-L-tyrosine monosodium salt.

[2] = solubility in ethyl acetate; format: physicochemical; conditions: extraction of the aqueous phase with ethyl acetate
Source text: as §1

[3] = read-out: solubility in water, equivalent molar

| SMILES | solubility ([1]; read-out: solubility in water) [mg/mL] | solubility [1, 3] [mM] | solubility in ethyl acetate [2] |
| --- | --- | --- | --- |
| O=C([O-])C[C@H](O)C(=O)N[C@@H](Cc1ccc(O)cc1)C(=O)[O-].[Na+].[Na+] [L-malyl-L-tyrosine disodium salt] | 820 | 2400 | not soluble in ethyl acetate |
| C[C@H](O)C(=O)N[C@@H](Cc1ccc(O)cc1)C(=O)[O-].[Na+] | ≥ 330 | ≥ 1200 | – |
